Data taken from patent US20230357253A1, “AGONISTS OF STIMULATOR OF INTERFERON GENES STING” (THE SCRIPPS RESEARCH INSTITUTE, priority 2020, published 2023).

Columns and labels:
human STING protein = human STING protein (Homo sapiens (Human), UniProt Q86WV6); assay: WT STING binding assay (HTRF, competition with labeled 2′3′cGAMP); settings: recombinant 6×His-tagged human STING, three hours at room temperature
Method: WT STING binding assay (Cisbio, Catalog #64BDSTGPEH). […] Upon proximity of the two dyes, the excitation of the donor by the flash lamp on the PHERAstar FSX plate reader triggers a Fluorescence Resonance Energy Transfer (FRET) towards the acceptor, which in turn fluoresces at 665 nm. To assess the ability of the synthetic small molecule STING ligands to bind to human STING, a competitive assay format was applied. A 10-point titration of each of the synthetic ligands in 5 uL were transferred into a 384 well plate, followed by 20 uL of assay buffer containing the 6×His-tagged human STING protein and labeled 2′3′cGAMP ligand and incubated for three hours at room temperature. The raw values obtained from the PHERAstar were used to calculate the reported IC50 values (the signal is inversely proportional to the binding of the synthetic ligand) through curve fitting in Genedata. The percent inhibition was calculated based upon the maximal amount of binding by synthetic compound versus the maximum binding of unlabeled 2′3′ cGAMP which was used as a control in each assay.

THP-1 Lucia ISG cells = assay: ISRE-luciferase assay (ISG-LUC activation); format: cell-based; settings: Homo sapiens, THP1-Lucia ISG, 24 hours, luciferase reporter
Outline: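 THP-1 Lucia ISG cells at 5×10^5 cells/ml in 2% FBS medium were treated with test article or DMSO vehicle for 24 h. Secreted luciferase was read by luminescence and normalized to vehicle, reported as RLU.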

human STING protein, sequence (Q86WV6 whole entry): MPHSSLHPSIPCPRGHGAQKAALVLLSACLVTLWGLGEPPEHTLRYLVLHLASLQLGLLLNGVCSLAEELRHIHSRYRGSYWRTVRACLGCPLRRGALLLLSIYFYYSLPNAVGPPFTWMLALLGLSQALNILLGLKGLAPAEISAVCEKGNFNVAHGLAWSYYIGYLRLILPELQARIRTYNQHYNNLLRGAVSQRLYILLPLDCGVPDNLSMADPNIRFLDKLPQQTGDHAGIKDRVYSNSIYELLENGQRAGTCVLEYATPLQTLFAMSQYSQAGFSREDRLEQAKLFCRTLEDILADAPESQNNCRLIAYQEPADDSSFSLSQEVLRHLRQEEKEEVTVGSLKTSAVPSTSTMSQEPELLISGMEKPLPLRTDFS

| SMILES | IC50 (human STING protein) [µM] | EC50 (THP-1 Lucia ISG cells) [µM] |
| --- | --- | --- |
| COC(=O)c1nc(Cl)c(CCCc2cnc(C(=O)O)c(NC(=O)c3ccc(-n4ccnc4)nn3)c2)cc1NC(=O)c1ccc(-n2ccnc2)nn1 [Compound 80] | 0.01 to 0.1 | 0.5 to 5 |
| O=C(Nc1cc(OCCCCOc2ccc(C(=O)O)c(NC(=O)c3ccc(-n4ccnc4)nn3)c2)ccc1C(=O)O)c1ccc(-n2ccnc2)nn1 [Compound 16] | 0.1 to 1 | > 5 |
| O=C(Nc1cc(CCCc2cc(NC(=O)c3ccc(-n4ccnc4)nn3)c(C(=O)O)nc2Cl)c(F)cc1C(=O)O)c1ccc(-n2ccnc2)nn1 [Compound 52] | 0.01 to 0.1 | 0.05 to 0.5 |
| O=C(Nc1cc(CCCc2cnc(C(=O)O)c(NC(=O)c3ccc(-n4ccnc4)nn3)c2)c(F)cc1C(=O)O)c1ccc(-n2ccnc2)nn1 [Compound 65] | 0.01 to 0.1 | 0.5 to 5 |
| O=C(Nc1cc(OCCc2cc(NC(=O)c3ccc(-n4ccnc4)nn3)c(C(O)C(=O)O)cc2F)c(F)cc1C(=O)O)c1ccc(-n2ccnc2)nn1 (stereo not shown) [Compound 154] | 0.1 to 1 | 0.5 to 5 |
| CC(COc1cc(NC(=O)c2ccc(-n3ccnc3)nn2)c(C(=O)O)cc1F)COc1cc(NC(=O)c2ccc(-n3ccnc3)nn2)c(C(=O)O)cc1F [Compound 185] | 0.01 to 0.1 | 0.5 to 5 |
| O=C(Nc1cc(F)c(CCCc2cc(C(=O)O)c(NC(=O)c3ccc(-n4ccnc4)nn3)cc2F)cc1C(=O)O)c1ccc(-n2ccnc2)nn1 [Compound 172] | 0.1 to 1 | > 5 |
| O=C(Nc1cc(OCCCOc2cc(NC(=O)c3ccc(-n4ccnc4)nn3)c(C(=O)O)cc2F)ccc1C(=O)O)c1ccc(-n2ccnc2)nn1 [Compound 203] | 0.01 to 0.1 | 0.5 to 5 |
| O=C(Nc1cc(CCCc2cc(NC(=O)c3ccc4nnnn4n3)c(C(=O)O)cc2F)c(F)cc1C(=O)O)c1ccc2nnnn2n1 [Compound 161] | 0.1 to 1 | > 5 |
| COC(=O)c1ccc(CCCc2ccc(C(=O)O)c(NC(=O)c3ccc(-n4ccnc4)nn3)c2)cc1NC(=O)c1ccc(-n2ccnc2)nn1 [Compound 47] | 0.1 to 1 | 0.5 to 5 |
| O=C(Nc1cc(OCCc2cc(NC(=O)c3ccc(-n4ccnc4)nn3)c(C(=O)O)nc2Cl)c(F)cc1C(=O)O)c1ccc(-n2ccnc2)nn1 [Compound 181] | 0.01 to 0.1 | 0.05 to 0.5 |
| O=C(Nc1cc(CCOCc2cc(NC(=O)c3ccc(-n4ccnc4)nn3)c(C(=O)O)cc2F)c(F)cc1C(=O)O)c1ccc(-n2ccnc2)nn1 [Compound 149] | 0.01 to 0.1 | 0.5 to 5 |
| N#Cc1cc(C(=O)O)c(NC(=O)c2ccc(-n3ccnc3)nn2)cc1OCCc1cc(NC(=O)c2ccc(-n3ccnc3)nn2)c(C(=O)O)cc1F [Compound 167] | 0.01 to 0.1 | 0.05 to 0.5 |
| O=C(Nc1cc(CCOc2cc(NC(=O)c3ccc(-n4ccnc4)nn3)c(C(=O)O)cc2F)c(F)cc1C(=O)O)c1ccc(-n2ccnc2)nn1 [Compound 119] | 0.01 to 0.1 | 0.05 to 0.5 |
| O=C(Nc1cc(OCCc2cc(C(=O)O)c(NC(=O)c3ccc4nnnn4n3)cc2F)c(F)cc1C(=O)O)c1ccc2nnnn2n1 [Compound 176] | 0.1 to 1 | > 5 |
| O=C(Nc1cc(CCCc2cc(NC(=O)c3cc4nnnn4nn3)c(C(=O)O)cc2F)c(F)cc1C(=O)O)c1ccc(-c2cn[nH]c2)nn1 [Compound 192] | 0.01 to 0.1 | 0.5 to 5 |
| COc1cc(NC(=O)c2ccc(-n3ccnc3)nn2)c(C(=O)O)c(F)c1CCCc1cc(NC(=O)c2ccc(-n3ccnc3)nn2)c(C(=O)O)cc1F [Compound 170] | 0.01 to 0.1 | 0.05 to 0.5 |
| O=C(Nc1cc(OCCCCOc2cc(NC(=O)c3ccc(-n4ccnc4)nn3)c(C(=O)O)cc2F)c(F)cc1C(=O)O)c1ccc(O)nn1 [Compound 18] | 0.1 to 1 | > 5 |
| O=C(Nc1cc(CSCc2cc(NC(=O)c3ccc4nnnn4n3)c(C(=O)O)cc2F)c(F)cc1C(=O)O)c1ccc(-n2ccnc2)nn1 [Compound 184] | 0.01 to 0.1 | 0.5 to 5 |
| COC(=O)c1ccc(CCCc2cc(C(=O)O)c(NC(=O)c3ccc(-n4ccnc4)nn3)cc2F)cc1NC(=O)c1ccc(-n2ccnc2)nn1 [Compound 79] | 0.1 to 1 | 0.05 to 0.5 |
| O=C(Nc1cc(CCOc2cc(NC(=O)c3ccc(-n4ccnc4)nn3)c(C(=O)O)cc2Cl)c(F)cc1C(=O)O)c1ccc(-n2ccnc2)nn1 [Compound 197] | 0.01 to 0.1 | 0.05 to 0.5 |
| O=C(Nc1cc(CCOc2c(F)cc(C(=O)O)c(NC(=O)c3ccc(-n4ccnc4)nn3)c2F)c(F)cc1C(=O)O)c1ccc(-n2ccnc2)nn1 [Compound 123] | 0.1 to 1 | 0.05 to 0.5 |
| O=C(Nc1cc(OCCCCOc2cc(NC(=O)c3ccc4nnnn4n3)c(C(=O)O)cc2F)ccc1C(=O)O)c1ccc2nnnn2n1 [Compound 1, 4-(4-(4-carboxy-3-(tetrazolo[1,5-b]pyridazine-6-carboxamido)phenoxy)butoxy)-5-fluoro-2-(tetrazolo[1,5-b]pyridazine-6-carboxamido)benzoic acid] | 0.1 to 1 | 0.5 to 5 |

Other lines, results leading:

| IC50 (human STING protein) [µM] | EC50 (THP-1 Lucia ISG cells) [µM] | SMILES |
| --- | --- | --- |
| 0.1 to 1 | > 5 | COc1cc(C(=O)O)c(NC(=O)c2ccc(-n3ccnc3)nn2)cc1OCCCCOc1ccc(C(=O)O)c(NC(=O)c2ccc(-n3ccnc3)nn2)c1 [Compound 49] |
| 0.1 to 1 | > 5 | O=C(Nc1cc(OCCCCOc2cnc(C(=O)O)c(NC(=O)c3ccc4nnnn4n3)c2)c(F)cc1C(=O)O)c1ccc(-n2ccnc2)nn1 [Compound 83] |
| 0.1 to 1 | 0.5 to 5 | O=C(Nc1cc(CCCc2ccc(C(=O)O)c(NC(=O)c3ccc4nnnn4n3)c2)c(F)cc1C(=O)O)c1ccc(-n2ccnc2)nn1 [Compound 75] |
| 0.1 to 1 | 0.5 to 5 | O=C(Nc1cc(CCOc2c(F)cc(C(=O)O)c(NC(=O)c3ccc4nnnn4n3)c2F)c(F)cc1C(=O)O)c1ccc(-n2ccnc2)nn1 [Compound 118] |
| 0.01 to 0.1 | 0.5 to 5 | O=C(Nc1cc(CCCc2cnc(C(=O)O)c(NC(=O)c3ccc4nnnn4n3)c2)c(F)cc1C(=O)O)c1ccc(-n2ccnc2)nn1 [Compound 112] |
| 0.1 to 1 | 0.05 to 0.5 | COc1cc(C(=O)O)c(NC(=O)c2ccc3nnnn3n2)cc1CCOc1cc(NC(=O)c2ccc(-n3ccnc3)nn2)c(C(=O)O)cc1F [Compound 100] |
| 0.01 to 0.1 | 0.5 to 5 | COc1cc(C(=O)O)c(NC(=O)c2ccc3nnnn3n2)cc1OCCCCOc1cc(NC(=O)c2ccc(-n3ccnc3)nn2)c(C(=O)O)cc1F [Compound 95] |
| 0.1 to 1 | 0.5 to 5 | COc1cc(NC(=O)c2ccc3nnnn3n2)c(C(=O)O)cc1CCOc1cc(NC(=O)c2ccc(-n3ccnc3)nn2)c(C(=O)O)cc1F [Compound 103] |
| 0.1 to 1 | > 5 | COc1cc(C(=O)O)c(NC(=O)c2ccc(-n3ccnc3)nn2)cc1OCCc1cc(NC(=O)c2ccc3nnnn3n2)c(C(=O)O)cc1F [Compound 110] |
| 0.1 to 1 | > 5 | O=C(Nc1cc(CCCc2cnc(C(=O)O)c(NC(=O)c3ccc(-n4ccnc4)nn3)c2)c(F)cc1C(=O)O)c1ccc2nnnn2n1 [Compound 82] |
| 0.1 to 1 | > 5 | COc1cc(C(=O)O)c(NC(=O)c2ccc3nnnn3n2)cc1OCCc1ccc(C(=O)O)c(NC(=O)c2ccc(-n3ccnc3)nn2)c1 [Compound 91] |
| 0.01 to 0.1 | > 5 | O=C(Nc1cc(OCCCCOc2ccc(C(=O)O)c(NC(=O)c3ccc4nnnn4n3)c2)c(F)cc1C(=O)O)c1ccc(-n2ccnc2)nn1 [Compound 57] |
